Reference: publication PMC8230565, “Bisavenathramide Analogues as Nrf2 Inductors and Neuroprotectors in In Vitro Models of Oxidative Stress and Hyperphosphorylation” (Antioxidants, 2021)

How the values were obtained:
SH-SY5Y cells = assay: Superoxide production (DHE) in SH-SY5Y cells under R/O; type: cell-based; conditions: 1 and 10 µM
Procedure: To evaluate superoxide production, we used the fluorescent dye dihydroethidium (DHE). SH-SY5Y cells were seeded in 96-well clear-bottom black plates (6 × 10^4 cells/well). After 24 h, cells were treated with compound 3i at the desired concentrations for 24 h. Thereafter, treatments were eliminated and cells were loaded with DHE (20 μM) for 45 min. […] Fluorescence was evaluated in a Nikon T1000 fluorescence microscope at 490/630 excitation/emission wavelengths, respectively. Images were quantitated using Fiji software, and data are expressed as the increase after 6 h exposure to ROS generator, normalized to basal conditions as 100% increase.
To further evaluate its mechanism of action, and considering the importance of exacerbated oxidative stress in neurodegenerative diseases, we evaluated its capacity to reduce free radical species production using the above-mentioned R/O toxic combination to generate ROS and measure the influence of 3i in the total ROS production by using the H2DCFDA dye, and also the specific superoxide production by using the selective dye dihydroetidium (DHE). […] This reduction might be related to a combination of direct scavenger effect and an increased expression of Nrf2-dependent antioxidant genes, such as HO-1.

HMOX1 = assay: Western blot of Nrf2-dependent protein expression in AREc32 cells: HMOX1; type: cell-based; conditions: 30 μM, 24 h
Procedure: AREc32 cells were collected from plates after 24 h of treatment with the selected compound at 30 µM. Then, they were lysed in ice-cold lysis buffer (1% Nonidet P-40, 10% glycerol, 137 mM NaCl, 20 mM Tris HCl pH 7.5, 1 μg/mL leupeptin, 1 mM phenylmethylsulfonyl fluoride, 20 mM NaF, 1 mM sodium pyrophosphate, and 1 mM Na3VO4). After this treatment, proteins (30 μg) were resolved by gel electrophoresis on sodium dodecyl sulfate–polyacrylamide (12%) and transferred to Immobilon-P membranes (MilliporeSigma, Burlington, MA, USA). The membranes were incubated with anti-GCLc (1:1000, Ab41463 (Abcam, Cambridge, MA, USA), anti−HMOX1 (1:1000, ab68477, Abcam), anti-NQO1 (1:1000, 11451-1-AP, Proteintech, Manchester, UK), or anti-β-Actin (1:100,000, A3854, Merck, Madrid, Spain). Peroxidase-conjugated secondary antibodies (1:10,000 and anti-rabbit: SC-2357, Santa Cruz Biotechnology, Dallas, TX, USA) were employed to detect the proteins by enhanced chemoluminescence. Band intensities corresponding to immunoblot detection of protein samples were quantitated with Fiji software.
Figure 4 Compound 3g effectively induces Nrf2 translocation and overexpression of Nrf2-ARE dependent genes in AREc32 cells. […] (B) Nrf2 nuclear localization analysis, measured as integrated intensity localized at the nucleus. HMOX1 (C) and NQO1 (D) expression in AREc32, measured by Western blot analysis. […]

SMILES | superoxide production (DHE) (SH-SY5Y cells) | HMOX1 protein levels (HMOX1)
COC(=O)C1=C(C)N(CCc2ccccc2)C(=O)/C1=C\c1ccc(O)c(O)c1 [Compound 3i, Methyl (Z)-4-(3,4-Dihydroxybenzylidene)-2-methyl-5-oxo-1-phenethyl-4,5-dihydro-1H-pyrrole-3-carboxylate] | reduce superoxide production at both concentrations | –
COC(=O)C1=C(C)N(CCc2ccccc2)C(=O)/C1=C\c1cc(OC)c(OC)c(OC)c1 [Compound 3g, Methyl (Z)-2-Methyl-5-oxo-1-phenethyl-4-(3,4,5-trimethoxybenzylidene)-4,5-dihydro-1H-pyrrole-3-carboxylate] | – | significantly increased
